# Assay results published in US20260076959A1, “COMBINATION PRODUCT, SALT, AND USE THEREOF IN TREATING NEURODEGENERATIVE DISEASES OR DISORDERS” (SHANGHAI HENLIUS BIOTECH, INC., priority 2023, published 2026).
# Where a name gives a salt, the structure may show the parent alone.
# How the values were obtained:
# ALS = details: in vivo; cited from earlier work
# [1] = tested on: MPTP-induced Parkinson's disease mouse model; test: MPTP-induced Parkinson's disease mouse model (grip strength, rotarod, TH immunohistochemistry); format: in vivo, C57BL/6 mice; details: for reduction in TH-positive cells in the substantia nigra region: P<0.0001
# Procedure: Sixty male C57BL/6 mice were selected and randomly divided into 5 groups (12 mice/group), namely a sham surgery group (normal control), a model group (model control), an L-DOPA group (positive drug control, 40 mg/kg), a low-dose YT salt treatment group (167.5 mg/kg), and a high-dose YT salt treatment group (248 mg/kg). The mice were intraperitoneally injected with MPTP at a dose of 30 mg/kg for 5 consecutive days for modeling. The YT salt was intragastrically administered twice daily (with an interval of 7-8 h between two administrations) for 13 consecutive days. L-DOPA was administered twice daily (with an interval of 7-8 h between two administrations) for 8 consecutive days. The amelioration effect of the YT salt on the motor function of the MPTP-induced Parkinson's disease mice was evaluated by behavioral indicators such as a grip strength test and a rotarod test. Histopathological examination was performed on the animals to evaluate the protective effect of the YT salt on dopaminergic neurons in the MPTP-induced Parkinson's disease mice.
# SH-sy5y cells = test: Cell viability of hydrogen peroxide-induced SH-sy5y cells (CellTiter-Glo luminescence); format: cell-based
# Procedure: Neuroblastoma SH-sy5y cells (purchased from the Cell Bank of the Chinese Academy of Sciences) were cultured in a complete medium (DMEM+10% FBS+1% PS) in a cell incubator at 37° C. with 5% CO2. The experiment was divided into 11 groups in total: • Group 1 (control): SH-sy5y cells • Group 2 (model): SH-sy5y cells+hydrogen peroxide • Group 3: SH-sy5y cells+hydrogen peroxide+compound Y (100 μM) • Group 4: SH-sy5y cells+hydrogen peroxide+compound T (100 μM) • Group 5: SH-sy5y cells+hydrogen peroxide+compound B (100 μM) • Group 6: SH-sy5y cells+hydrogen peroxide+compound N (100 μM) • Group 7: SH-sy5y cells+hydrogen peroxide+compound combination Y+T (100 μM+100 μM) • Group 8: SH-sy5y cells+hydrogen peroxide+compound combination B+N (100 μM+100 μM) • Group 9: SH-sy5y cells+hydrogen peroxide+compound combination PB+T (500 μM+200 μM) • Group 10: SH-sy5y cells+hydrogen peroxide+YT salt (100 μM) • Group 11: SH-sy5y cells+DMSO
# Neuroblastoma SH-sy5y cells were plated at 1×10^4 cells/well in a complete medium (DMEM+10% FBS+1% PS) and cultured in a cell incubator at 37° C. with 5% CO2 for 24 h, followed by the addition of the corresponding compounds. After 24 h of incubation, hydrogen peroxide was added to stimulate the cells for 1 h, with the final concentration of hydrogen peroxide being 350 µM. Subsequently, […] CellTiter-Glo® (CTG) reagent was added, and the mixture was shaken for 2 min. Then, the luminescence signal values were measured, which could characterize the cell viability. […] Pharmacology/toxicologyNDAreviewandevaluation, Application number: 2166600Orig1s000, Food and Drug Administration. doi: pink.pharmaintelligence.informa.com/-/media/supporting-documents/pink-sheet/2022/11/relyvrio_nonclinical.pdf?rev=d27109bf35c040d4a78f73144d132917&hash=414BB5B4473A21ECE0231375EB1C0341).
# CD4-positive T cells = test: Proliferation of CD4-positive T cells from anti-CD3/CD28-stimulated PBMCs (CellTrace, flow cytometry); format: cell-based, human; details: 72 h; for proliferation of CD4-positive T cells compared to control group (DMSO): 100 μM (Y+T: 100 μM+100 μM)
# Text: (§1) It has been reported that in ALS, Th cells are described as major players in inflammation and disease progression. […] Similarly, CD8 T cell infiltration was also observed in the spinal cord and brain of ALS patients. (Elise Liu, et al., Neuroinflammation in Amyotrophic Lateral Sclerosis and Frontotemporal Dementia and the Interest of Induced Pluripotent Stem Cells to Study Immune Cells Interactions With Neurons, Front Mol Neurosci. 2021 Dec. 14; 14:767041. doi: 10.3389/fnmol.2021.767041.) To observe the inhibitory effects of the compounds, the compound combination, or the salt of the present disclosure on immune cell infiltration or proliferation, their effects in inhibiting the proliferation of CD4-positive and CD8-positive T cells were further analyzed. First, a certain amount of human peripheral blood mononuclear cells (PBMCs) were incubated with 5 μM CellTrace cell proliferation assay reagent in an incubator at 37° C. with 5% CO2 in the dark for 20 min. Then, 1.5×10^5 CellTrace-stained PBMCs were seeded in a 96-well U-bottom plate and treated with Anti-CD3/CD28 antibody-coupled magnetic beads at a ratio of 1:1 (cell count:magnetic bead count) to induce differentiation into T cells. Subsequently, various compounds at corresponding concentrations (compound Y: 100 μM; compound T: 100 μM; compound combination Y+T: 100 µM compound Y+100 μM compound T; YT salt: 100 μM; control group: […] (100 μM)) were co-incubated with the above-treated cells in the incubator at 37° C. with 5% CO2 for 72 h, followed by analysis by a flow cytometer. Specifically, the test cells were first treated with a Live/dead dye (633 nm, 1:1000 dilution) at 4° C. for 30 min to distinguish dead cells from live cells. […] After appropriate washing, the above-stained cells were analyzed by a flow cytometer at different wavelengths. […] Proliferation of CD4-positive and CD8-positive T cells was determined by the fluorescence of CellTrace dye.
# CD8-positive T cells = test: Proliferation of CD8-positive T cells from anti-CD3/CD28-stimulated PBMCs (CellTrace, flow cytometry); format: cell-based, human; details: 72 h; for proliferation of CD8-positive T cells compared to control group (DMSO): 100 μM (Y+T: 100 μM+100 μM)
# Text: as §1
# [2] = tested on: SOD1G93A mutant ALS model mice; test: Onset of disease, severe conditions and survival in SOD1G93A ALS mouse model; format: in vivo
# Procedure: The therapeutic effect of the YT salt on the survival status of ALS animals was evaluated in SOD1^G93A transgenic mice (B6SJL-Tg (SOD1*G93A) 1/cyagen). Sixteen female and fourteen male B6SJL-Tg(SOD1*G93A) 1/cyagen mice were selected and randomly divided into 2 groups (7 males+8 females/group) according to sex and body weight, namely a model group (control) and a YT salt group (treatment group). The YT salt was intragastrically administered at a dose of 496 mg/kg once daily. The administration began on day 66 of mouse age. Body weight changes were monitored, animal status and symptom severity were evaluated, and individual survival periods were recorded. Statistics on the severity of animal symptoms included the time to the first onset of disease and the time to the first observation of severe conditions in the animals. […] In this study, “severe condition” was defined as a state in which the animal was completely paralyzed and unable to move freely, but still alive; if the animal died directly without going through a “paralysis” stage after the onset of disease, the death was considered the occurrence of a severe condition. The survival period was statistically defined as the survival time of the animal at the endpoint of the test (day 130). The hazard ratio was calculated using the Log-rank test method.
# [3] = tested on: 6-OHDA-induced Parkinson's disease rats; test: 6-OHDA-induced Parkinson's disease rat model (grid walking test); format: in vivo, SD rats; details: 248 mg/kg intragastrically once daily, 6 weeks; P<0.05 vs model
# Procedure: Forty-eight male SD rats were selected and divided into 4 groups (12 rats/group), namely a sham surgery group (normal control), a model group (model control), an istradefylline group (istradefylline, as a positive drug control, 10 mg/kg), and a YT salt treatment group (248 mg/kg). The Parkinson's disease model was established by injecting […] of 6-OHDA into the right intracranial medial forebrain bundle (MFB) of rats. After modeling, istradefylline and the YT salt were administered intragastrically once daily for 6 consecutive weeks, and a grid walking test was performed at the end of the 6-week administration period to evaluate the disease progression in the rats.
# [4] = 496 mg/kg intragastrically once daily
smiles,measurement,setting,value
CC1=NN(c2ccccc2)C(=O)C1 [Evadarone],revised ALS functional rating scale (ALSFRS-R) score,ALS,improves
"N[C@@H](Cc1ccc(O)c(O)c1)C(=O)O [L-DOPA, reference compound]",MPTP-induced decrease in animal grip strength,"[1]; L-DOPA 40 mg/kg twice daily, 8 days, P<0.001 vs model",significantly ameliorate
same,reduction in TH-positive cells in the substantia nigra region,[1]; L-DOPA 40 mg/kg twice daily,significant inhibition
COc1cc2cc3[n+](cc2cc1OC)CCc1cc2c(cc1-3)OCO2 [YT salt],"effects in improving cell viability compared to compound T, compound B, combination B+N and combination PB+T","SH-sy5y cells; Y+T 100 μM+100 μM, YT salt 100 μM, hydrogen peroxide-induced",significantly superior effects in improving cell viability
same,proliferation of CD4-positive T cells compared to control group (DMSO),CD4-positive T cells,significantly inhibited
same,inhibitory effect on proliferation of CD4-positive T cells compared to compound T and compound U (UDCA),CD4-positive T cells; 100 μM,significantly superior
same,proliferation of CD8-positive T cells compared to control group (DMSO),CD8-positive T cells,significantly inhibited
same,inhibitory effect on proliferation of CD8-positive T cells compared to compound T and compound U (UDCA),CD8-positive T cells; 100 μM,significantly superior
same,median onset time,[2]; [4],109 days
same,median time to severe condition occurrence,[2]; [4],117 days
same,onset time (earliest onset in group),[2]; [4],> 90 days of mouse age
same,time of first onset vs model group (Log-rank),"[2]; 496 mg/kg intragastrically once daily from day 66 of age, P=0.0802",no statistical difference
same,hazard ratio for disease onset,"[2]; 496 mg/kg intragastrically once daily, Log-rank",0.5716
same,survival period vs model group,"[2]; 496 mg/kg intragastrically once daily, P<0.01",significantly superior
same,incidence of severe conditions vs model group,"[2]; 496 mg/kg intragastrically once daily, P<0.05",significantly lower
same,median onset time longer than in the model group,"[2]; 496 mg/kg intragastrically once daily, model group 102 days",7 days
same,death hazard ratio,"[2]; 496 mg/kg, Log-rank",0.3212
same,hazard ratio for severe conditions,"[2]; 496 mg/kg, Log-rank",0.45
same,endpoint survival rate,"[2]; 496 mg/kg, endpoint day 130",53.333%
same,median survival period,"[2]; 496 mg/kg, endpoint day 130",the number of dead individuals had not exceeded half by the endpoint of the test
same,endpoint severe condition rate,"[2]; 496 mg/kg, endpoint of the test day 130",66.667%
same,"hazard ratio for disease onset, times lower than model group","[2]; 496 mg/kg, model group 1.749",about 3 times
same,"hazard ratio for severe conditions, times lower than model group","[2]; 496 mg/kg, model group 2.222",about 5 times
same,"death hazard ratio, times lower than model group","[2]; 496 mg/kg, model group 3.113",~10 times
same,median time to severe condition occurrence longer than in the model control group,"[2]; 496 mg/kg, model group 109 days",about 8 days
same,apoptosis of dopaminergic neurons in the substantia nigra region and striatal region,[1]; YT salt 167.5 mg/kg twice daily,significantly inhibit
same,MPTP-induced decrease in animal grip strength,"[1]; YT salt high dose 248 mg/kg intragastrically twice daily, 13 days, P<0.01 vs model",significantly ameliorate
same,reduction in TH-positive cells in the substantia nigra region,[1]; YT salt high dose 248 mg/kg twice daily,significant inhibition
same,loss of TH-positive neurons (TH immunohistochemical staining in the striatum),"[1]; YT salt high dose 248 mg/kg twice daily, P<0.01",significant inhibition
same,MPTP-induced reduction in time on the rod (rotarod test),"[1]; YT salt high dose 248 mg/kg twice daily, P<0.05 vs model",significant amelioration effect
same,reduction in TH-positive cells in the substantia nigra region,[1]; YT salt low dose 167.5 mg/kg twice daily,significant inhibition
same,foot fault rate in grid walking test,[3],significant reduction
same,number of foot faults in grid walking test,[3],significant reduction
COc1cc2cc3[n+](cc2cc1OC)CCc1cc2c(cc1-3)OCO2.[Cl-] [compound Y],effect in improving cell viability compared to compound B monotherapy,"SH-sy5y cells; 100 μM each, hydrogen peroxide-induced",superior
same,effect in improving cell viability compared to the model,"SH-sy5y cells; 100 μM, 24 h incubation, then hydrogen peroxide 1 h, P<0.0001 vs model",excellent effect in improving cell viability
same,proliferation of CD4-positive T cells compared to control group (DMSO),CD4-positive T cells,significantly inhibited
same,proliferation of CD8-positive T cells compared to control group (DMSO),CD8-positive T cells,significantly inhibited
